Source: publication PMC10458307, “New Scaffolds of Proteasome Inhibitors: Boosting Anticancer Potential by Exploiting the Synergy of In Silico and In Vitro Methodologies” (Pharmaceuticals, 2023)
Values joined by “and” are separate entries in the source; they are usually repeats but may differ in a detail not shown here. Identical values can stand only once.

Columns and labels:
[1] = Cell viability, MTT assay, HCT116; format: cell-based, human; settings: human, HCT116 colorectal carcinoma cells; for viability at 72 h, 10 µM: at 10 µM, read-out: percentage of cell viability, MTT, HCT-116; for viability at 72 h, 100 µM: at 100 µM, read-out: percentage of cell viability, MTT, HCT116
Protocol: (§1) Whenever possible, additional concentrations were tested and IC50 values were determined.
(§2) Human leukemia Jurkat E6.1 T-cell line and K562-cell line were originally obtained from ATCC Collections (Manassas, VA, USA); human HT-29 and HCT116 colorectal carcinoma-cell lines were obtained from ECACC (Porton Down, Porton, UK). Cells were passaged for less than 6 months after and routinely tested for mycoplasma contamination using Mycoalert detection kit (Lonza, Basel, Switzerland). Jurkat, K562, and HT-29 cells were maintained in Roswell Park Memorial Institute (RPMI) 1640 with GlutaMAX™, supplemented with 1% antibiotic mixture (100 µg/mL streptomycin and 100 U/mL penicillin) and 10% heat-inactivated foetal bovine serum (FBS) (all from Gibco, Thermo Fisher Scientific, Paisley, UK). HCT116 cells were maintained in Dulbecco’s Modified Eagle Medium (DMEM) with GlutaMAX™, supplemented with 1% antibiotic mixture (100 µg/mL streptomycin and 100 U/mL penicillin) and 10% heat-inactivated FBS (all from Gibco, Thermo Fisher Scientific, Paisley, UK). Incubation was performed at 37 °C in a 5% CO2 atmosphere. Cells were routinely passaged every 2 or 3 days at 70–90% confluence; TrypLE Express (Gibco, Thermo Fisher Scientific, Paisley, UK) was used as dissociation agent for adherent cells. Trypan blue (Gibco, Thermo Fisher Scientific, Paisley, UK) was used to assess cell viability using the dye exclusion test.
(§3) To assess cell viability, the MTT assay was performed. Jurkat/K562/HT-29/HCT116 cell lines were seeded in triplicate (10,000 cells/well) in 96-well plates with 50 µL of complete medium and incubated at 37 °C, 5% CO2 for 24 h to allow the cells to adhere to the plate (in the case of adherent cells). […] Untreated cells seeded in triplicate were used as control. The blank was performed in triplicate with 100 µL of culture medium. The cells were incubated with the compounds, in triplicate, in 100 µL of total volume, at 37 °C, 5% CO2 for 72 h. […] In suspension cells (Jurkat), 25 µL of MTT were directly added to each well and, after 3 h 30 m of incubation, 100 µL of DMSO were added to solubilize the formazan crystals; in adherent cells (HT-29 and HCT116), the culture medium was removed, 25 µL of MTT were added to each well and, after 3 h 30 m of incubation, upon MTT removal, 100 µL of DMSO were added to solubilize the formazan crystals. After 15 min, the samples absorbance was measured at 570 nm and the percentage of cell viability was determined.

HCT116 cells = experiment: Cell viability, MTT assay, HCT116; format: cell-based, human; settings: 72 h; for IC50: Homo sapiens, HCT-116, mean ± SD; for percentage of cell viability, MTT, HCT116: at 100 µM
Protocol: as §1, §2, §3

Jurkat cells = experiment: Cell viability, MTT assay, Jurkat; format: cell-based, human; settings: 72 h; for IC50: Homo sapiens, Jurkat, mean ± SD; for percentage of cell viability, MTT, Jurkat: at 100 µM
Protocol: as §1, §2, §3

[2] = biological target: T1, isolated human 20S proteasome, T-L activity (Homo sapiens, UniProt P49720+Q99436); experiment: Proteasome inhibition assay in isolated human 20S proteasomes (Proteasome-Glo), T-L activity; format: biochemical; settings: for inhibition at 10 µM: read-out: percentage of proteasome inhibition, T-L, isolated 20S proteasome; for percentage of proteasome inhibition, T-L, isolated human 20S proteasome: at 100 µM, Table 1 legend: bortezomib positive control 10 µM; for IC50: mean ± SD
T1 construct: human purified erythrocyte-derived 20S proteasome; purchased Enzo Life Sciences, Inc; host or cells: human erythrocytes (natural source)
Text: (§4) In this assay, the peptide substrates are bound to aminoluciferin (Suc-LLVY-AML for CT-L activity, Z-nLPnLD-AML for C-L, and Z-LRR-AML for T-L), leading the cleavage of these substrates by the proteasome to the release of free aminoluciferin, which is the substrate of the buffer-contained luciferase.
(§5) To evaluate human purified erythrocyte-derived 20S proteasome inhibitory activity of the chosen compounds, the Proteasome-Glo™ 3-substrate system (Promega Corporation, Madison, WI, USA) was employed. The Proteasome-Glo™ reagents of the three proteolytic activities were prepared according to the manufacturer’s instructions, aliquoted, and stored at either −20 °C or 4 °C, avoiding freezing–thaw cycles. […] The purified 20S proteasome (Enzo Life Sciences, Inc., Farmingdale, NY, USA) was diluted in HEPES buffer 10 mM, pH 7.4, to a concentration experimentally adjusted to the signal/noise ratio obtained with each particular lot of Proteasome-Glo™ reagent, in order to have a good compromise between sensitivity and linear response. […] All assays were performed in white-walled multiwell plates (Thermo Scientific™ Sterilin™ White Microtiter™ plates, Thermo Fisher Scientific, Paisley, UK) in duplicates. The proteasome solution (25 μL) was added to each well first, then the diluted solutions of the assayed compounds (25 μL), and lastly the Proteasome-Glo™ Reagent (50 μL). […] Reagents were added to the plate well on ice, and the plate was then transferred to the plate luminometer (SpectraMax®, Molecular Devices, LLC, San Jose, CA, USA) set at 37 °C, gently mixed for 30 s, and the measurements were immediately started in kinetic mode, with data collected every 5 min for at least 60 min.
(§6) All compounds were dissolved in DMSO at a concentration of 10 mM and stored at −20 °C or 4 °C. Solutions of the test compounds were prepared at their adequate dilutions in 10 mM HEPES buffer pH 7.6 before each experiment.
(§7) To calculate the proteasome activity over time, the value of mean relative luminescence units (RLU) of blank wells at each respective time point was subtracted, and then the ratio between mean RLU of the sample and mean RLU of the positive control wells was calculated for each time point and expressed as percentage.

[3] = biological target: T2, 20S proteasome in Jurkat cell lysates, CT-L activity (Homo sapiens, UniProt P28074); experiment: Proteasome inhibition assay in cell lysates, Jurkat, CT-L; settings: for inhibition at 10 µM: read-out: percentage of proteasome inhibition, CT-L, cell lysates Jurkat, at 10 µM; for inhibition at 100 µM: read-out: percentage of proteasome inhibition, CT-L, cell lysates Jurkat, at 100 µM
T2 sequence (P28074 60-263): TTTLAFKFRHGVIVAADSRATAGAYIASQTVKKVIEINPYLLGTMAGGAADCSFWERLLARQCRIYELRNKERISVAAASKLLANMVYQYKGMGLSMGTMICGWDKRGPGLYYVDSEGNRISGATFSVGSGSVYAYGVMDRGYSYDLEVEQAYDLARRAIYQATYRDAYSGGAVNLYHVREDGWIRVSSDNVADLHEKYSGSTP
T2 sequence (P20618 29-241 partner): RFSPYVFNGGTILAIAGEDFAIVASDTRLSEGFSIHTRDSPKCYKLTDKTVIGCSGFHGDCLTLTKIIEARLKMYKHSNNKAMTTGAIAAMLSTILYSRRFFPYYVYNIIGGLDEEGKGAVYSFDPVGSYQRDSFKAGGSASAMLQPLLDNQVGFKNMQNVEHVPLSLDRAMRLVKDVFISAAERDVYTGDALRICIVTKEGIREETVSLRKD
Protocol: Cells were obtained from several cultured cell lines: Jurkat, K562, HT-29, and HCT116. Pellets with 20 × 10^6 cells were prepared and washed with cold sterile phosphate buffered saline (PBS), 1×, pH 7.4 (Gibco, Thermo Fisher Scientific, Paisley, UK). The preparation of the lysates from several cell lines was performed based on the methodology described by Gavioli et al. [67]. Cells were resuspended in buffer containing 50 mM TRIS-HCl pH 7.4 (Nzytech, Lisboa, Portugal), 5 mM MgCl2 (≥98% purity, Merck, Hamburg, Germany), 1 mM DTT (Merck, Hamburg, Germany), 2 mM ATP (≥98% purity, Enzo Life Sciences Inc., Farmingdale, NY, USA), and 250 mM saccharose (Merck, Hamburg, Germany). Glass beads (Merck, Hamburg, Germany) equivalent to the volume of the cell suspension were added, and the mixture was vortexed for 2 min at 4 °C. Beads and cell debris were removed using 5 min centrifugation at 1000× g and 4 °C, followed by 20 min of centrifugation at 10,000× g at 4 °C. Cell lysates containing proteasomes were resuspended in “activity buffer” [50 mM TRIS-HCl (pH 7.4), 5 mM MgCl2, 1 mM DTT, 2 mM ATP (≥98% purity, Enzo Life Sciences Inc., Farmingdale, NY, USA), and 500 µM EDTA (≥98% purity, Merck, Hamburg, Germany)]. Protein concentration was determined using the Pierce™ BCA protocol (Thermo Fisher Scientific, Rockford, IL, USA). […] DMSO was added in an equal volume as used for the untreated compounds as a way to assess/control its influence in the assay. Untreated cells were used as control. In each well of a 96-well plate, 25 µL of lysate were seeded in duplicate with 25 µL of the compound to test; in the control, 25 µL of activity buffer were added to the 25 µL of lysate. A blank (50 µL of activity buffer) was added to the wells in quadruplicate. Cell lysates, pre-treated or not with different concentrations of the test compounds, were incubated for 30 min at 37 °C. […] Stock solutions (10 mM) of each substrate were prepared in DMSO, diluted in activity buffer, and 50 µL were added to all wells (final concentration of each substrate = 100 µM), followed by an incubation at 37 °C for 60 min. Samples fluorescence was measured at an excitation wavelength of 360 nm and emission of 465 nm; the fluorescence measures were performed using the GloMax-Multi + Detection System (Promega Corp., Madison, WI, USA). Activity was evaluated in fluorescence units, after being converted to percentage of proteasome inhibition and, whenever possible, expressed as IC50 by plotting the inhibition data of each compound at different concentrations against the log of the concentration of the inhibitor, using the GraphPad Prism software version 7. At least eight different concentrations of the test compounds were used.

[4] = biological target: T3, isolated human 20S proteasome, C-L activity (Homo sapiens, UniProt P28072+Q99436); experiment: Proteasome inhibition assay in isolated human 20S proteasomes (Proteasome-Glo), C-L activity; format: biochemical; settings: for inhibition at 10 µM: read-out: percentage of proteasome inhibition, C-L, isolated 20S proteasome; for percentage of proteasome inhibition, C-L, isolated human 20S proteasome: at 100 µM, Table 1 legend: bortezomib positive control 10 µM
T3 construct: human purified erythrocyte-derived 20S proteasome; purchased Enzo Life Sciences, Inc; host or cells: human erythrocytes (natural source)
Text: as §4, §5, §6, §7

[5] = at 100 µM, Table 2 legend: bortezomib 10 µM
[6] = Table 2 legend: bortezomib 10 µM

Row | IC50 (HCT116 cells) | IC50 (Jurkat cells) | inhibition at 10 µM [2] | percentage of proteasome inhibition, T-L, isolated human 20S proteasome [2] | percentage of proteasome inhibition, CT-L, cell lysates Jurkat ([3]; at 10 µM) | percentage of proteasome inhibition, CT-L, cell lysates Jurkat [3, 5] | inhibition at 10 µM [4] | percentage of proteasome inhibition, C-L, isolated human 20S proteasome [4] | inhibition at 10 µM [3] | inhibition at 100 µM [3, 6] | IC50 [2] | IC50 [3] | SMILES | viability at 72 h, 10 µM [1] | viability at 72 h, 100 µM [1] | percentage of cell viability, MTT, Jurkat (Jurkat cells) | percentage of cell viability, MTT, HCT116 (HCT116 cells)
1 |  |  | 0% | 97.00% |  | 72% | 90.8% | 97.86% and 98% | 8.23% | 72.1% | 25.8 µM | 73.2 µM | O=C1c2ccccc2C(=O)c2c(Nc3ccc(S(=O)(=O)N(CCO)CCO)cc3)ccc(O)c21 [Compound 2] | 98% | 89.1% | 77% | 89%
2 |  |  | 8.8% | 95.30% and 95% |  | 33% | 9.9% | 88.38% and 88% | 0% | 32.8% | 27.5 µM |  | Cc1ccc(/C(=N/NS(=O)(=O)c2ccc([N+](=O)[O-])cc2)Sc2cc(Cl)c(C)cc2S(N)(=O)=O)cc1 [Compound 3] | 100% | 95.2% | 86% | 95%
3 | 1.02 µM | 1.37 µM | 0% | 73.95% and 74% |  |  | 5.8% | 77.65% and 78% | 10.5% | 98% | 48.4 µM | 24.3 µM | C#CCCN1CCN(c2ccc(-n3c(=O)ccc4cnc5ccc(-c6ccc(N)nc6)cc5c43)cc2C(F)(F)F)CC1 [Compound 4, 9-(6-Aminopyridin-3-yl)-1-(4-(4-(but-3-yn-1-yl)piperazin-1-yl)-3-(trifluoromethyl)phenyl)benzo[h][1,6]naphthyridin-2(1H)-one] | 38.4% | 0% |  | 

Continued, compound first:

Row | SMILES | IC50 (HCT116 cells) | IC50 (Jurkat cells) | inhibition at 10 µM [2] | percentage of proteasome inhibition, T-L, isolated human 20S proteasome [2] | percentage of proteasome inhibition, CT-L, cell lysates Jurkat ([3]; at 10 µM) | percentage of proteasome inhibition, CT-L, cell lysates Jurkat [3, 5] | inhibition at 10 µM [4] | percentage of proteasome inhibition, C-L, isolated human 20S proteasome [4] | inhibition at 10 µM [3] | inhibition at 100 µM [3, 6] | IC50 [2] | IC50 [3] | viability at 72 h, 10 µM [1] | viability at 72 h, 100 µM [1] | percentage of cell viability, MTT, Jurkat (Jurkat cells) | percentage of cell viability, MTT, HCT116 (HCT116 cells)
4 | CC(C)C[C@H](NC(=O)[C@H](Cc1ccccc1)NC(=O)c1cnccn1)B(O)O [Bortezomib, bortezomib, reference compound] | 0.0107 µM | 0.00648 µM | 3.2% | 33.58% and 34% | 99.63% | 99.30% and 99% | 33.8% | 92.80% and 93% |  |  |  |  | 0% | 0% |  | 
5 | Cc1ccc2ccccc2c1CSc1ncnc2c1ncn2C1OC(CO)C(O)C1O (centres unmarked) [Compound 1] | 65.7 µM | 36.8 µM | 4.43% | 51.65% and 52% |  | 54% | 0% | 54.47% and 55% | 0% | 53.5% |  |  | 95.5% | 24% | 21% | 
6 | CC(C)c1nc(CN(C)C(=O)N[C@@H](CCN2CCOCC2)C(=O)N[C@H](CC[C@H](Cc2ccccc2)NC(=O)OCc2cncs2)Cc2ccccc2)cs1 [Compound 5, cobicistat, reference compound] | 58.4 µM | 43.8 µM | 5.37% | 5.35% and 5% |  | 64% | 0% | 33.57% and 34% | 0% | 63.7% |  |  | 98.7% | 23.7% |  | 24%
